Test results from US7402399B2, “Receptor tyrosine kinase signaling pathway analysis for diagnosis and therapy” (Monogram BioSciences, Inc., priority 2003, dated 2008).

How the values were obtained:
[1] = test system: intracellular phosphorylated tyrosine (Her receptor phosphorylation); experiment: eTag assay of formalin fixed paraffin embedded cell pellets for receptor phosphorylation; format: cell-based, human; settings: 100 nM EGF vs non-stimulated
Protocol: In this example, model fixed tissues made from pelleted cell lines were assayed for the presence of Her receptor dimers. The assay design for heterodimers was essentially the same as that described in FIG. 4A, with exceptions as noted below. That is, four components are employed: (i) a cleaving probe comprising a biotinylated monoclonal antibody conjugated to a cleavage-inducing moiety (in this example, a photosensitizer-derivatized streptavidin, as illustrated in FIG. 3E) and specific for one of the receptors of the dimer, (ii) a monoclonal antibody derivatized with a first molecular tag and specific for the same receptor as the cleaving probe, (iii) a monoclonal antibody derivatized with a second molecular tag and specific for the receptor opposite to that the cleaving probe is specific for, and (iv) a monoclonal antibody derivatized with a third molecular tag and specific for an intracellular phosphorylated tyrosine. The assay design for homodimers was essentially the same as that described in FIG. 1D, with exceptions as noted below.
In each case, model fixed tissues were prepared as follows: cells grown on tissue culture plates were stimulated with either EGF or HRG as described in the prior examples, after which they were washed and removed by scrapping. […]

Her2-Her3 heterodimers = target: T1, Her2-Her3 heterodimers (Homo sapiens, UniProt P04626+P21860); experiment: eTag assay of cell lysates for Her2-Her3 heterodimers after ligand stimulation; format: cell-based; settings: MCF-7 cells, increasing ligand concentrations (0-100 nM), 10 minutes at 37° C.
T1 construct: endogenous in cells; host or cells: MCF-7
Protocol: Measurements are made using three binding compounds and a cleaving probe as described below.
• 1. Serum-starve breast cancer cell line culture overnight before use. • 2. […] Aspirate culture media, transfer onto ice, and add lysis buffer to lyse cells in situ. • 4. Scrape and transfer lysate to microfuge tube. Incubate on ice for 30 min. Microfuge at 14,000 rpm, 4° C., for 10 min. (Centrifugation is optional.) • 5. Collect supernatants as lysates and aliquot for storage at −80° C. until use. Assay: Assay design: As illustrated diagrammatically in FIG. 4A, Her2-Her3 heterodimers (900) are quantified ratiometrically based on the binding of cleaving probe (902) and binding compounds (904), (906), and (908). A photosensitizer indicated by “PS” is attached to cleaving probe (902) via an avidin-biotin linkage, and binding compounds (904), (906), and (908) are labeled with molecular tags Pro4, Pro10, and Pro 11, respectively. Binding compound (904) is specific for a phosphorylation site on Her3. The total assay volume is 40 ul. The lysate volume is adjusted to 30 ul with lysis buffer. […]
Data Analysis: • 3. Normalize relative fluorescence units (RFU) signal of each molecular tag against CE reference standard A315 (a fluorescein-derivatized deoxyadenosine monophosphate that has known peak position relative to molecular tags from the assay upon electrophoretic separation). • 4. […]

Her1 phosphorylation = experiment: eTag assay of cell lysates for Her1 receptor phosphorylation; format: cell-based, human; settings: BT-20 cells, increasing EGF concentration
Protocol: Sample preparation was carried out essentially as described in Example 2.
Assay design: A monoclonal antibody specific to the receptor is separately conjugated with either a molecular tag or biotin (that is then linked to a photosensitizer via an avidin bridge), so that the cleaving probe and a binding compound compete to bind to the same epitope in this example. Another binding compound is used that consists of a second anibody recognizing an […] epitope on the receptor, so that a ratiometric signal can be generated as a measure of homodimerization. The signal derived from the second antibody also provides a measure of the total amount of receptor in a sample. The total amount of receptor is determined in a separate assay well. Receptor phosphorylation can be quantified together with either homodimerization or total receptor amount.
Procedure: The assay volume is 40 ul and the general procedure is similar to that of Example 2. Two assay wells, A and B, are set up for each sample to quantify homodimerization and total amount of receptor separately. […]

EGF: epidermal growth factor, ligand used to stimulate cell lines
Her receptor phosphorylation ([1]; fixed pellets of 22Rv1 cells): up-regulation | intracellular phosphorylation ([1]; fixed pellets of MDA-MB468 cells): increases | quantity of Her2-Her3 heterodimers (Her2-Her3 heterodimers): essentially no change | quantity of Her1 phosphorylation (Her1 phosphorylation): increases
